Experimental data as given in patent publication US12509452B2, “Substituted-isoxazoline-containing aromatic compound, preparation method therefor, herbicidal composition and use thereof” (QINGDAO KINGAGROOT CHEMICAL COMPOUND CO., LTD., priority 2019, dated 2025).

Columns and labels:
Test in all cases: weeding effect in post-emergence stage
Type in all cases: in vivo
[1] = system: Rorippa indica
Method in brief: (§1)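 Post-emergence spray-tower application at 500, 250, 125, 60, 15 or 7.5 g a.i./ha, formulated in acetone with Tween 80 and 1.5 L/ha methyl oleate synergist, to pot-grown plants at the 2-3 leaf stage. After 3 weeks in the greenhouse, fresh-weight control rate graded levels 0-5; three replicates averaged.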

[2] = system: Beckmannia syzigachne
Method in brief: as §1

[3] = system: Alopecurus japonicus
Method in brief: as §1

[4] = system: Conyza japonica
Method in brief: as §1

Row | Structure (SMILES) | weeding effect in post-emergence stage, Rorippa indica (activity level) ([1]; dose 125 g a.i./ha) | weeding effect in post-emergence stage, Beckmannia syzigachne (activity level) ([2]; dose 125 g a.i./ha) | weeding effect in post-emergence stage, Alopecurus japonicus (activity level) ([3]; dose 125 g a.i./ha) | weeding effect in post-emergence stage, Conyza japonica (activity level) ([4]; dose 125 g a.i./ha) | weeding effect in post-emergence stage, Rorippa indica (activity level) ([1]; dose 15 g a.i./ha) | weeding effect in post-emergence stage, Beckmannia syzigachne (activity level) ([2]; dose 15 g a.i./ha) | weeding effect in post-emergence stage, Alopecurus japonicus (activity level) ([3]; dose 15 g a.i./ha) | weeding effect in post-emergence stage, Conyza japonica (activity level) ([4]; dose 15 g a.i./ha) | weeding effect in post-emergence stage, Rorippa indica (activity level) ([1]; dose 7.5 g a.i./ha) | weeding effect in post-emergence stage, Beckmannia syzigachne (activity level) ([2]; dose 7.5 g a.i./ha) | weeding effect in post-emergence stage, Alopecurus japonicus (activity level) ([3]; dose 7.5 g a.i./ha) | weeding effect in post-emergence stage, Conyza japonica (activity level) ([4]; dose 7.5 g a.i./ha)
1 | CCOC(=O)C1(C=O)CC(c2cc(-n3c(=O)cc(C(F)(F)F)n(C)c3=O)c(F)cc2Cl)=NO1 (racemic) [Compound 152] | 5 (Level 5: growth control rate is above 85%) | 5 (Level 5: growth control rate is above 85%) | 5 (Level 5: growth control rate is above 85%) | 5 (Level 5: growth control rate is above 85%) |  |  |  |  |  |  |  | 
2 | CCOC(=O)C1(COC=O)CC(c2cc(-n3c(=O)cc(C(F)(F)F)n(C)c3=O)c(F)cc2Cl)=NO1 (racemic) [Compound 218] | 5 (Level 5: growth control rate is above 85%) | 5 (Level 5: growth control rate is above 85%) | 5 (Level 5: growth control rate is above 85%) | 5 (Level 5: growth control rate is above 85%) |  |  |  |  |  |  |  | 
3 | CCOC(=O)C1(COC(C)=O)CC(c2cc(-n3c(=O)cc(C(F)(F)F)n(C)c3=O)c(F)cc2Cl)=NO1 (racemic) [Compound 219] | 5 (Level 5: growth control rate is above 85%) | 5 (Level 5: growth control rate is above 85%) | 5 (Level 5: growth control rate is above 85%) | 5 (Level 5: growth control rate is above 85%) | 4 (Level 4: growth control rate is greater than or equal to 60% and less than 85%) |  |  |  |  |  |  | 
4 | CCOC(=O)C1(COC(=O)C(=O)O)CC(c2cc(-n3c(=O)cc(C(F)(F)F)n(C)c3=O)c(F)cc2Cl)=NO1 (racemic) [Compound 220] | 5 (Level 5: growth control rate is above 85%) | 5 (Level 5: growth control rate is above 85%) | 5 (Level 5: growth control rate is above 85%) | 5 (Level 5: growth control rate is above 85%) |  |  |  |  |  |  |  | 
5 | COC(=O)C1(OC)CC(c2cc(-n3c(=O)cc(C(F)(F)F)n(C)c3=O)c(F)cc2Cl)=NO1 (racemic) [Compound 226] | 5 (Level 5: growth control rate is above 85%) | 5 (Level 5: growth control rate is above 85%) | 5 (Level 5: growth control rate is above 85%) | 5 (Level 5: growth control rate is above 85%) |  |  |  |  |  |  |  | 
6 | CCOC(=O)C1(CC)CC(c2cc(-n3c(=S)cc(C(F)(F)F)n(C)c3=O)c(F)cc2Cl)=NO1 (racemic) [Compound 228] | 5 (Level 5: growth control rate is above 85%) | 5 (Level 5: growth control rate is above 85%) | 5 (Level 5: growth control rate is above 85%) | 5 (Level 5: growth control rate is above 85%) | 5 (Level 5: growth control rate is above 85%) | 4 (Level 4: growth control rate is greater than or equal to 60% and less than 85%) | 5 (Level 5: growth control rate is above 85%) | 5 (Level 5: growth control rate is above 85%) |  |  |  | 
7 | CCOC(=O)C1(CC)CC(c2cc(-n3c(=O)cc(C(F)(F)F)n(C)c3=S)c(F)cc2Cl)=NO1 (racemic) [Compound 229] | 5 (Level 5: growth control rate is above 85%) | 5 (Level 5: growth control rate is above 85%) | 5 (Level 5: growth control rate is above 85%) | 5 (Level 5: growth control rate is above 85%) |  |  |  |  |  |  |  | 
8 | CCOC(=O)C1(CC)CC(c2cc(-n3c(=S)cc(C(F)(F)F)n(C)c3=S)c(F)cc2Cl)=NO1 (racemic) [Compound 230] | 5 (Level 5: growth control rate is above 85%) | 5 (Level 5: growth control rate is above 85%) | 5 (Level 5: growth control rate is above 85%) | 5 (Level 5: growth control rate is above 85%) |  |  |  |  |  |  |  | 
9 | CCOC(=O)C1(C2CC2)CC(c2cc(-n3c(=S)cc(C(F)(F)F)n(C)c3=O)c(F)cc2Cl)=NO1 (racemic) [Compound 231] | 5 (Level 5: growth control rate is above 85%) | 5 (Level 5: growth control rate is above 85%) | 5 (Level 5: growth control rate is above 85%) | 5 (Level 5: growth control rate is above 85%) | 5 (Level 5: growth control rate is above 85%) | 4 (Level 4: growth control rate is greater than or equal to 60% and less than 85%) |  | 5 (Level 5: growth control rate is above 85%) |  |  |  | 
10 | CCOC(=O)[C@]1(CC)CC(c2cc(-n3c(=O)n(C)c(=S)n(C)c3=O)c(F)cc2Cl)=NO1 [3(S)] | 5 (Level 5: growth control rate is above 85%) | 5 (Level 5: growth control rate is above 85%) | 5 (Level 5: growth control rate is above 85%) | 5 (Level 5: growth control rate is above 85%) |  |  |  |  | 5 (Level 5: growth control rate is above 85%) | 4 (Level 4: growth control rate is greater than or equal to 60% and less than 85%) | 5 (Level 5: growth control rate is above 85%) | 4 (Level 4: growth control rate is greater than or equal to 60% and less than 85%)
11 | CCC[C@@]1(C(=O)OCC)CC(c2cc(-n3c(=O)n(C)c(=S)n(C)c3=O)c(F)cc2Cl)=NO1 [4(S)] | 5 (Level 5: growth control rate is above 85%) | 5 (Level 5: growth control rate is above 85%) | 5 (Level 5: growth control rate is above 85%) | 5 (Level 5: growth control rate is above 85%) | 5 (Level 5: growth control rate is above 85%) | 5 (Level 5: growth control rate is above 85%) | 5 (Level 5: growth control rate is above 85%) | 5 (Level 5: growth control rate is above 85%) |  |  |  | 
12 | CCOC(=O)[C@@]1(C2CC2)CC(c2cc(-n3c(=O)n(C)c(=S)n(C)c3=O)c(F)cc2Cl)=NO1 [17(S)] | 5 (Level 5: growth control rate is above 85%) | 5 (Level 5: growth control rate is above 85%) | 5 (Level 5: growth control rate is above 85%) | 5 (Level 5: growth control rate is above 85%) |  |  |  |  |  |  |  | 
13 | CCOC(=O)[C@]1(CBr)CC(c2cc(-n3c(=O)n(C)c(=S)n(C)c3=O)c(F)cc2Cl)=NO1 [31(S)] |  |  |  |  | 5 (Level 5: growth control rate is above 85%) | 5 (Level 5: growth control rate is above 85%) | 5 (Level 5: growth control rate is above 85%) | 5 (Level 5: growth control rate is above 85%) |  |  |  | 
14 | CCOC(=O)[C@]1(C(F)(F)F)CC(c2cc(-n3c(=O)n(C)c(=S)n(C)c3=O)c(F)cc2Cl)=NO1 [33(S)] |  |  |  |  | 5 (Level 5: growth control rate is above 85%) | 5 (Level 5: growth control rate is above 85%) | 5 (Level 5: growth control rate is above 85%) | 5 (Level 5: growth control rate is above 85%) |  |  |  | 
